Measured values as given in PMC9048407 (Molecular microbiology, 2021).

Experiments:
BplA (Ca 0589) = biological target: T1, BplA (Ca 0589) (Clostridium acetobutylicum, UniProt Q97LH2); test: TLC of […]Bio-5′-AMP; type: biochemical; settings: 25 uM biotin, 5 uM ATP, 5.5 mM MgCl2, pH 8.0, room temperature; acceptor B. subtilis AccB-86
T1 sequence (Q97LH2 1-270): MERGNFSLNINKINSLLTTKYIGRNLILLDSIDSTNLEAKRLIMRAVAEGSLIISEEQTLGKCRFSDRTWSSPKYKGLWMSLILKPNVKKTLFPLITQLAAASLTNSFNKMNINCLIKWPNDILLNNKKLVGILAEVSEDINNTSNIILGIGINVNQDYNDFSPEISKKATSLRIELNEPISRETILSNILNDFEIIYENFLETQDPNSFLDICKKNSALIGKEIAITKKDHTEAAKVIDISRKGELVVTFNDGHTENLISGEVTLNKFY

[1] = biological target: BirA′ (protein encoded by Clostridium acetobutylicum gene Ca 0212), purified (Clostridium acetobutylicum (strain ATCC 824)); test: SEC

stoichiometry N [1] | Molecule | TLC of [32P]Bio-5′-AMP; AccB-86 native gel shift; MS/MS of product (BplA (Ca 0589))
 | O=C(O)CCCC[C@@H]1SC[C@@H]2NC(=O)N[C@@H]21 [biotin] | In reactions with BplA, formation of the Bio-5′-AMP intermediate was detected upon biotin addition
2 | BirA′ (protein encoded by Clostridium acetobutylicum gene Ca 0212), purified (natural protein) | 
